Assay in all cases: in vivo carotenoid production in E. coli, HPLC-DAD and LC-MS
Holding throughout (format): cell-based

Test [1] deals with T1, tCYP97H1 (Euglena gracilis, UniProt A0A1Y1C5R9, F221A).
T1 construct: gene CYP97H1; plastid signal M1-L116 deleted; E. coli codon optimised; expressed in beta-carotene producing E. coli with Spinacia oleracea ferredoxin / ferredoxin reductase
The note with it: beta-carotene producing E. coli, S. oleracea ferredoxin / ferredoxin reductase co-expressed; product beta-cryptoxanthin.

The target in test [2] is T2, tCYP97H1 (Euglena gracilis, UniProt A0A1Y1C5R9, F242A).
T2 construct: gene CYP97H1; plastid signal M1-L116 deleted; E. coli codon optimised; expressed in beta-carotene producing E. coli with Spinacia oleracea ferredoxin / ferredoxin reductase
To be noted: beta-carotene producing E. coli, S. oleracea ferredoxin / ferredoxin reductase co-expressed; product beta-cryptoxanthin.

Test [3] concerns the target T3, tCYP97H1 (Euglena gracilis, UniProt A0A1Y1C5R9).
T3 construct: gene CYP97H1; plastid signal M1-L116 deleted; E. coli codon optimised; expressed in beta-carotene producing E. coli with Spinacia oleracea ferredoxin / ferredoxin reductase
To be noted: beta-carotene producing E. coli, S. oleracea ferredoxin / ferredoxin reductase co-expressed, product beta-cryptoxanthin.

Test [4] addresses T4, tCYP97H1 (Euglena gracilis, UniProt A0A1Y1C5R9, F218A).
T4 construct: gene CYP97H1; plastid signal M1-L116 deleted; E. coli codon optimised; expressed in beta-carotene producing E. coli with Spinacia oleracea ferredoxin / ferredoxin reductase
The note with it: beta-carotene producing E. coli, S. oleracea ferredoxin / ferredoxin reductase co-expressed, product beta-cryptoxanthin.

In test [5] the target is T5, tCYP97H1 (Euglena gracilis, UniProt A0A1Y1C5R9, F246A).
T5 construct: gene CYP97H1; plastid signal M1-L116 deleted; E. coli codon optimised; expressed in beta-carotene producing E. coli with Spinacia oleracea ferredoxin / ferredoxin reductase
To be noted: beta-carotene producing E. coli, S. oleracea ferredoxin / ferredoxin reductase co-expressed; product beta-cryptoxanthin.

For a further test, the target named is T6, tCYP97A3At (Arabidopsis thaliana, UniProt Q93VK5).
T6 construct: gene CYP97A3; first 77 residues deleted, no MBP tag; expressed in beta-carotene producing E. coli with Spinacia oleracea ferredoxin / ferredoxin reductase
T6 sequence (Q93VK5 78-595): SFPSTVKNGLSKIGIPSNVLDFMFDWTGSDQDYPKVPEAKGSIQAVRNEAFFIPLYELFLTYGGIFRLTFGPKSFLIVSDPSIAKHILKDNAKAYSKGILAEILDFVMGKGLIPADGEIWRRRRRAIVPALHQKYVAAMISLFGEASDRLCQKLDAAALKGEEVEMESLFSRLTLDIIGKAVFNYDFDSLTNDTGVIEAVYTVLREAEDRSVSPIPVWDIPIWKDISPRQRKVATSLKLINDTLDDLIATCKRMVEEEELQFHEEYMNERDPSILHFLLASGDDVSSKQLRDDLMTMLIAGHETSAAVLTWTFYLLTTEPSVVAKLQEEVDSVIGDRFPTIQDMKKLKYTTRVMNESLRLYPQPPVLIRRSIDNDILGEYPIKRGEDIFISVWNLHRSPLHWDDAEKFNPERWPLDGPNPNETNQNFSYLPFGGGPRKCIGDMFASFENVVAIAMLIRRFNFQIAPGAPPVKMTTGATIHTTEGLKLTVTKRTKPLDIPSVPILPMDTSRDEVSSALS
To be noted: beta-carotene producing E. coli, S. oleracea ferredoxin / ferredoxin reductase co-expressed, product beta-cryptoxanthin.

[6] abbreviates: beta-cryptoxanthin formed in situ, side product zeaxanthin.

Two compounds from PMC9953315, “Cytochrome P450 Surface Domains Prevent the β-Carotene Monohydroxylase CYP97H1 of Euglena gracilis from Acting as a Dihydroxylase” (Biomolecules, 2023) can be followed below.

T3 sequence (A0A1Y1C5R9 entry or part of it): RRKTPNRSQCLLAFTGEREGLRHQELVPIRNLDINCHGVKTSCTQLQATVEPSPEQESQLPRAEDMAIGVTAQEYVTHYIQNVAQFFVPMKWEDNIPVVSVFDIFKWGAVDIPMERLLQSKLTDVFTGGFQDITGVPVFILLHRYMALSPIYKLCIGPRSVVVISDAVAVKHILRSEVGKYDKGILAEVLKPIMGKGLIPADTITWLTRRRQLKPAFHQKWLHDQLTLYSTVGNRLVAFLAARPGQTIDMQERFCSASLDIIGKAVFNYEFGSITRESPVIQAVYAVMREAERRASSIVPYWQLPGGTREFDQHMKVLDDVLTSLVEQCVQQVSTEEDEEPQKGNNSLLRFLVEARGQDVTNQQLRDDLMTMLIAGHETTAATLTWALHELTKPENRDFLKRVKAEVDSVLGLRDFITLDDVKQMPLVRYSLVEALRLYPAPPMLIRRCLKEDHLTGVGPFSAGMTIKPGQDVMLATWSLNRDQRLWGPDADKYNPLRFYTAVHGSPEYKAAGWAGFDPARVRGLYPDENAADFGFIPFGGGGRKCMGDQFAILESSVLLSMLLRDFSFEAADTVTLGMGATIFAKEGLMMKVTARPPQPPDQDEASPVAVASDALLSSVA
T4 sequence (A0A1Y1C5R9 entry or part of it F218A): as the sequence (A0A1Y1C5R9 entry or part of it) above, with F102A counted along it
T5 sequence (A0A1Y1C5R9 entry or part of it F246A): as the sequence (A0A1Y1C5R9 entry or part of it) above, with F130A counted along it
T1 sequence (A0A1Y1C5R9 entry or part of it F221A): as the sequence (A0A1Y1C5R9 entry or part of it) above, with F105A counted along it
T2 sequence (A0A1Y1C5R9 entry or part of it F242A): as the sequence (A0A1Y1C5R9 entry or part of it) above, with F126A counted along it

With `CC1=C(/C=C/C(C)=C/C=C/C(C)=C/C=C/C=C(C)/C=C/C=C(C)/C=C/C2=C(C)CCCC2(C)C)C(C)(C)CCC1` [β-carotene], the “in vivo carotenoid production in E. coli, HPLC-DAD and LC-MS” value on tCYP97H1 [1] was “All these single mutants exhibited reduced β-cryptoxanthin production”; on tCYP97H1 [2], “All these single mutants exhibited reduced β-cryptoxanthin production”; at tCYP97H1 [3], “the deletion of the plastid peptide signal from residue M1 to L116 improved activity”; on tCYP97H1 [4], “All these single mutants exhibited reduced β-cryptoxanthin production”; at tCYP97H1 [5], “All these single mutants exhibited reduced β-cryptoxanthin production”; at tCYP97A3At, “production of a small amount of hydroxylated β-carotene in vivo”.

Take `CC1=C(/C=C/C(C)=C/C=C/C(C)=C/C=C/C=C(C)/C=C/C=C(C)/C=C/C2=C(C)C[C@@H](O)CC2(C)C)C(C)(C)CCC1` [β-cryptoxanthin]: the “in vivo carotenoid production in E. coli, HPLC-DAD and LC-MS” value at tCYP97H1 [3] (setting [6]) was “A small side production of zeaxanthin was detected with CYP97H1 and the F105A mutant”; at tCYP97H1 [4] (setting [6]), “the zeaxanthin:β-cryptoxanthin ratio was displaced in favour of zeaxanthin”; at tCYP97A3At (beta-cryptoxanthin formed in situ, product zeaxanthin), “β-cryptoxanthin and zeaxanthin detection were confirmed by mass spectrometry in the strain ETL154, expressing CYP97A3”.
